From PubChem BioAssay AID256 (DTP/NCI, 2004)
Values joined by “and” are separate entries in the source; they are usually repeats but may differ in a detail not shown here. Identical values can stand only once. Inconclusive results and toxic doses are left out. The calls were made as follows: active = survival T/C of 150% or more; inactive = T/C below 125% in these data.

Test system: CD2F1 mice, L1210 leukemia ip, survival T/C
Assay: NCI In Vivo Anticancer Drug Screen. Data for tumor model L1210 Leukemia (intraperitoneal) in CD2F1 (CDF1) mice
Conditions: higher = longer survival
Summary of the method: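 Mice carrying a transplanted tumor received test compound or vehicle alone. The value is the measurement in the treated group divided by that in the vehicle-treated control group.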

[1] = endpoint: mean survival time, dose: 100.0 mg/kg/injection, schedule: Q01DX009 (ip), vehicle: saline with Tween-80
[2] = endpoint: mean survival time, dose: 100.0 mg/kg/injection, schedule: Q04DX003 (ip), vehicle: saline with Tween-80
[3] = endpoint: mean survival time, dose: 200.0 mg/kg/injection, schedule: Q01DX009 (ip), vehicle: saline with Tween-80
[4] = endpoint: mean survival time, dose: 400.0 mg/kg/injection, schedule: Q01DX009 (ip), vehicle: saline with Tween-80
[5] = endpoint: mean survival time, dose: 200.0 mg/kg/injection, schedule: Q04DX003 (ip), vehicle: saline with Tween-80
[6] = endpoint: mean survival time, dose: 400.0 mg/kg/injection, schedule: Q04DX003 (ip), vehicle: saline with Tween-80
[7] = endpoint: mean survival time, dose: 100.0 mg/kg/injection, schedule: Q04DX002 (ip), vehicle: saline with Tween-80
[8] = endpoint: mean survival time, dose: 200.0 mg/kg/injection, schedule: Q04DX002 (ip), vehicle: saline with Tween-80
[9] = endpoint: mean survival time, dose: 400.0 mg/kg/injection, schedule: Q04DX002 (ip), vehicle: saline with Tween-80
[10] = endpoint: median survival time, dose: 12.5 mg/kg/injection, schedule: Q01DX005 (ip), vehicle: saline with Tween-80
[11] = endpoint: median survival time, dose: 25.0 mg/kg/injection, schedule: Q01DX005 (ip), vehicle: saline with Tween-80
[12] = endpoint: median survival time, dose: 50.0 mg/kg/injection, schedule: Q01DX005 (ip), vehicle: saline with Tween-80
[13] = endpoint: median survival time, dose: 100.0 mg/kg/injection, schedule: Q01DX005 (ip), vehicle: saline with Tween-80
[14] = endpoint: median survival time, dose: 200.0 mg/kg/injection, schedule: Q01DX005 (ip), vehicle: saline with Tween-80
[15] = endpoint: mean survival time, dose: 100.0 mg/kg/injection, schedule: Q01DX001 (ip), vehicle: saline
[16] = endpoint: mean survival time, dose: 200.0 mg/kg/injection, schedule: Q01DX001 (ip), vehicle: saline

Measured: T/C

O=C1CN(Cc2ccc3c(c2)OCO3)NO1
inactive: endpoint: mean survival time, dose: 6.25 mg/kg/injection, schedule: Q01DX009 (ip), vehicle: saline with Tween-80 98 % of control and 101 % of control | endpoint: mean survival time, dose: 12.5 mg/kg/injection, schedule: Q01DX009 (ip), vehicle: saline with Tween-80 98 % of control | endpoint: mean survival time, dose: 25.0 mg/kg/injection, schedule: Q01DX009 (ip), vehicle: saline with Tween-80 102 % of control and 109 % of control | endpoint: mean survival time, dose: 50.0 mg/kg/injection, schedule: Q01DX009 (ip), vehicle: saline with Tween-80 113 % of control | [1] 120 % of control and 104 % of control

CN=C1CCCCN1
inactive: endpoint: mean survival time, dose: 100.0 mg/kg/injection, schedule: Q04DX003 (ip), vehicle: saline sonified 103 % of control | endpoint: mean survival time, dose: 200.0 mg/kg/injection, schedule: Q04DX003 (ip), vehicle: saline sonified 104 % of control | endpoint: mean survival time, dose: 400.0 mg/kg/injection, schedule: Q04DX003 (ip), vehicle: saline sonified 103 % of control

CC(O)C[As](=O)(O)c1ccc(Cl)cc1 (stereo unspecified)
inactive: endpoint: mean survival time, dose: 6.25 mg/kg/injection, schedule: Q04DX003 (ip), vehicle: saline with Tween-80 95 % of control | endpoint: mean survival time, dose: 12.5 mg/kg/injection, schedule: Q04DX003 (ip), vehicle: saline with Tween-80 107 % of control | endpoint: mean survival time, dose: 25.0 mg/kg/injection, schedule: Q04DX003 (ip), vehicle: saline with Tween-80 107 % of control

O=C1c2ccccc2C(=O)N1CNc1cccc(NCN2C(=O)c3ccccc3C2=O)c1
inactive: endpoint: mean survival time, dose: 100.0 mg/kg/injection, schedule: Q01DX009 (ip), vehicle: acetone 98 % of control | endpoint: mean survival time, dose: 200.0 mg/kg/injection, schedule: Q01DX009 (ip), vehicle: acetone 103 % of control | endpoint: mean survival time, dose: 400.0 mg/kg/injection, schedule: Q01DX009 (ip), vehicle: acetone 93 % of control

CC(NC1=NCCO1)c1cccc2ccccc12 (stereo unspecified)
inactive: [2] 89 % of control

c1ccc2c(c1)nnc1ccccc12
inactive: [1] 100 % of control | [3] 110 % of control | [4] 110 % of control

O=C(c1ccccc1)c1cc2ccccc2o1
inactive: endpoint: mean survival time, dose: 50.0 mg/kg/injection, schedule: Q01DX009 (ip), vehicle: saline + alcohol 102 % of control | endpoint: mean survival time, dose: 100.0 mg/kg/injection, schedule: Q01DX009 (ip), vehicle: saline + alcohol 105 % of control | endpoint: mean survival time, dose: 200.0 mg/kg/injection, schedule: Q01DX009 (ip), vehicle: saline + alcohol 93 % of control

OCC(CO)(CO)CO
inactive: endpoint: mean survival time, dose: 50.0 mg/kg/injection, schedule: Q01DX009 (ip), vehicle: Klucel (hydroxypropylcellulose) (HPC) 93 % of control | endpoint: mean survival time, dose: 100.0 mg/kg/injection, schedule: Q01DX009 (ip), vehicle: Klucel (hydroxypropylcellulose) (HPC) 93 % of control | endpoint: mean survival time, dose: 200.0 mg/kg/injection, schedule: Q01DX009 (ip), vehicle: Klucel (hydroxypropylcellulose) (HPC) 96 % of control

C=CCNc1n[nH]c(=S)s1
inactive: [2] 100 % of control | [5] 96 % of control | [6] 105 % of control

Cc1cn(C2CC(OP(=O)(O)OCC3OC(n4ccc(N)nc4=O)C(O)C3O)C(CO)O2)c(=O)[nH]c1=O (stereo unspecified)
inactive: endpoint: median survival time, dose: 5.0 mg/kg/injection, schedule: Q01DX005 (ip), vehicle: saline 107 % of control | endpoint: median survival time, dose: 10.0 mg/kg/injection, schedule: Q01DX005 (ip), vehicle: saline 117 % of control | endpoint: median survival time, dose: 25.0 mg/kg/injection, schedule: Q01DX005 (ip), vehicle: saline 122 % of control

Nc1c(Br)cc(Br)c2c1CCC2
inactive: [7] 94 % of control | [8] 105 % of control | [9] 94 % of control

COc1nc(NC2OCC(O)C(O)C2O)c(I)c(=O)n1C (stereo unspecified)
inactive: [10] 101 % of control | [11] 100 % of control | [12] 100 % of control | [13] 101 % of control | [14] 100 % of control

Nc1ccc2c(c1)C=CCS2
inactive: [1] 102 % of control | [2] 104 % of control | [3] 98 % of control | [5] 98 % of control | [4] 90 % of control | [6] 104 % of control

O=CNC(CSSCC(NC=O)C(=O)O)C(=O)O (stereo unspecified)
inactive: [1] 100 % of control | [3] 97 % of control | [4] 94 % of control

O=C1C=C(N2CCCC2)c2ccccc21
inactive: endpoint: mean survival time, dose: 100.0 mg/kg/injection, schedule: Q04DX003 (ip), vehicle: Klucel (hydroxypropylcellulose) (HPC) 106 % of control | endpoint: mean survival time, dose: 200.0 mg/kg/injection, schedule: Q04DX003 (ip), vehicle: Klucel (hydroxypropylcellulose) (HPC) 97 % of control | endpoint: mean survival time, dose: 400.0 mg/kg/injection, schedule: Q04DX003 (ip), vehicle: Klucel (hydroxypropylcellulose) (HPC) 95 % of control

Nc1nc(N)c2c(=O)c(CNc3ccc(C(=O)NC(CCC(=O)O)C(=O)O)cc3)c[nH]c2n1 (stereo unspecified)
inactive: endpoint: mean survival time, dose: 0.25 mg/kg/injection, schedule: Q01DX005 (ip), vehicle: sodium bicarbonate 104 % of control | endpoint: mean survival time, dose: 0.5 mg/kg/injection, schedule: Q01DX005 (ip), vehicle: sodium bicarbonate 119 % of control and 100 % of control | endpoint: mean survival time, dose: 1.0 mg/kg/injection, schedule: Q01DX005 (ip), vehicle: sodium bicarbonate 113 % of control and 100 % of control | endpoint: mean survival time, dose: 2.0 mg/kg/injection, schedule: Q01DX005 (ip), vehicle: sodium bicarbonate 98 % of control and 106 % of control | endpoint: mean survival time, dose: 4.0 mg/kg/injection, schedule: Q01DX005 (ip), vehicle: sodium bicarbonate 91 % of control and 104 % of control | endpoint: mean survival time, dose: 16.0 mg/kg/injection, schedule: Q01DX005 (ip), vehicle: sodium bicarbonate 98 % of control

COc1cc([N+](=O)[O-])c(C)[n+]([O-])n1
inactive: endpoint: mean survival time, dose: 25.0 mg/kg/injection, schedule: Q04DX002 (ip), vehicle: saline with Tween-80 96 % of control | endpoint: mean survival time, dose: 50.0 mg/kg/injection, schedule: Q04DX002 (ip), vehicle: saline with Tween-80 104 % of control

CCCC(O)C1CCCCC1O (stereo unspecified)
inactive: [1] 92 % of control | [3] 92 % of control | [4] 96 % of control

CCCC(C)(C)OC(=O)c1ccc([N+](=O)[O-])cc1
inactive: [15] 96 % of control | [16] 98 % of control | endpoint: mean survival time, dose: 400.0 mg/kg/injection, schedule: Q01DX001 (ip), vehicle: saline 100 % of control

CCCCCCCCCCC(=O)CC
inactive: [2] 100 % of control | [5] 102 % of control | [6] 98 % of control

CC(C)(C)SC1C(O)C(CO)OC1n1ccc(Nc2ccccc2)nc1=O (stereo unspecified)
inactive: [10] 99 % of control | [11] 99 % of control | [12] 102 % of control | [13] 104 % of control | [14] 90 % of control

COC1CC(CC2CCC(C)C(C(C)C(=O)O)O2)OC2(OC(C)(C3CCC(C)(C4OC(C5OC(O)(CO)C(C)CC5C)CC4C)O3)CC2C)C1C (stereo unspecified)
inactive: endpoint: mean survival time, dose: 0.31 mg/kg/injection, schedule: Q01DX009 (ip), vehicle: Klucel (hydroxypropylcellulose) (HPC) 92 % of control | endpoint: mean survival time, dose: 0.63 mg/kg/injection, schedule: Q01DX009 (ip), vehicle: Klucel (hydroxypropylcellulose) (HPC) 106 % of control | endpoint: mean survival time, dose: 1.25 mg/kg/injection, schedule: Q01DX009 (ip), vehicle: Klucel (hydroxypropylcellulose) (HPC) 110 % of control | endpoint: mean survival time, dose: 2.5 mg/kg/injection, schedule: Q01DX009 (ip), vehicle: Klucel (hydroxypropylcellulose) (HPC) 106 % of control

O=C(O)c1cc(N2CCCCC2)ccn1
inactive: [15] 94 % of control | [16] 100 % of control

CNN=C1CCCC1
inactive: endpoint: mean survival time, dose: 12.5 mg/kg/injection, schedule: Q01DX009 (ip), vehicle: saline 97 % of control | endpoint: mean survival time, dose: 25.0 mg/kg/injection, schedule: Q01DX009 (ip), vehicle: saline 102 % of control

O=C(O)C1C2C=CC(C2)C1C(=O)Nc1ccccc1 (stereo unspecified)
inactive: [1] 97 % of control | [3] 97 % of control | [4] 96 % of control

CC(C)(C)[N+](=O)[O-]
inactive: endpoint: mean survival time, dose: 50.0 mg/kg/injection, schedule: Q01DX009 (ip), vehicle: saline 93 % of control | endpoint: mean survival time, dose: 100.0 mg/kg/injection, schedule: Q01DX009 (ip), vehicle: saline 93 % of control | endpoint: mean survival time, dose: 200.0 mg/kg/injection, schedule: Q01DX009 (ip), vehicle: saline 93 % of control

CCCCCCCC(=O)Nc1ccc(C)c(C)c1
inactive: [1] 89 % of control | [3] 91 % of control | [4] 96 % of control

COc1csn[n+]1-c1ccc(C)cc1
inactive: endpoint: mean survival time, dose: 75.0 mg/kg/injection, schedule: Q01DX001 (ip), vehicle: saline 104 % of control

COc1c(Cl)c(=O)oc2cc(C)c(Cl)c(C)c12
inactive: endpoint: mean survival time, dose: 100.0 mg/kg/injection, schedule: Q01DX001 (ip), vehicle: saline with Tween-80 93 % of control | endpoint: mean survival time, dose: 200.0 mg/kg/injection, schedule: Q01DX001 (ip), vehicle: saline with Tween-80 96 % of control | endpoint: mean survival time, dose: 400.0 mg/kg/injection, schedule: Q01DX001 (ip), vehicle: saline with Tween-80 96 % of control

COc1ccccc1NC(=O)Oc1c(C)cccc1C
inactive: [7] 92 % of control | [8] 100 % of control | [9] 111 % of control
